Results on four compounds are retold here after US20080009418A1, “Selective Inhibitors” (Alchemia LTD., priority 2004, published 2008).

For assay [1], the target named is T1, Human δ-opioid (DOP) (Homo sapiens, UniProt P41143).
T1 construct: purchased Perkin Elmer Biosignal
As to the kind of experiment: Radioligand binding, human δ-opioid (DOP) membranes, FlashPlate, [3H]-Bremazocine. As to conditions: compound at 10 μM. In a few lines:
(§1)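 Cloned human receptor membranes were coated onto FlashPlate wells and incubated with radioligand and compound (added from a 0.5 mM DMSO daughter plate) for 1 hour at room temperature in the dark. Scintillation counting gave percent inhibition, with DMSO defining total and reference ligand defining non-specific binding.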

In assay [2] the target is T2, Human κ-Opioid (KOP) (Homo sapiens, UniProt P41145).
T2 construct: purchased Perkin Elmer Biosignal
T2 sequence (P41145 whole entry): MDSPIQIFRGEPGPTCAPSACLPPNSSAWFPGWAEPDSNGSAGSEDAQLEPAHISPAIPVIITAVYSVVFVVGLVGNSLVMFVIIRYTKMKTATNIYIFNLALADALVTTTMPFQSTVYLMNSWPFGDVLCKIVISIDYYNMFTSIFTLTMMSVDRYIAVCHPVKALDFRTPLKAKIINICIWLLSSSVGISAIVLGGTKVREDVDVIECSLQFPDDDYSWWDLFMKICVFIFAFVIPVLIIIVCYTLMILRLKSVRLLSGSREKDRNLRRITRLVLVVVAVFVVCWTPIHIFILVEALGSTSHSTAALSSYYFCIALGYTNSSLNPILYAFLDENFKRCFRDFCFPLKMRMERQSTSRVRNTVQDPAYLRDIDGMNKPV
As to the kind of experiment: Radioligand binding, human κ-opioid (KOP) membranes, filtration, [3H]-Diprenorphine. As to conditions: compound at 10 μM. The method in brief: (§2)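 Membranes from cloned human receptors were incubated with compound and radioligand for 1 hour at room temperature. Bound ligand was collected on 0.3% PEI-soaked filters, washed with cold 50 mM Tris-HCl pH 7.4, and counted by scintillation. Percent inhibition was computed against DMSO totals and reference-ligand nonspecific wells.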

Assay [3] concerns the target T3, Human Melanocortin (MC3) (Homo sapiens, UniProt P41968).
T3 construct: purchased Perkin Elmer Biosignal
Briefly: Radioligand binding, human melanocortin MC3 membranes, FlashPlate, [125I]-NDP-αMSH. As to conditions: compound at 10 μM. The method in brief: as §1

The target in assay [4] is T4, Human Melanocortin (MC4) (Homo sapiens, UniProt P32245).
T4 construct: purchased Perkin Elmer Biosignal
T4 sequence (P32245 whole entry): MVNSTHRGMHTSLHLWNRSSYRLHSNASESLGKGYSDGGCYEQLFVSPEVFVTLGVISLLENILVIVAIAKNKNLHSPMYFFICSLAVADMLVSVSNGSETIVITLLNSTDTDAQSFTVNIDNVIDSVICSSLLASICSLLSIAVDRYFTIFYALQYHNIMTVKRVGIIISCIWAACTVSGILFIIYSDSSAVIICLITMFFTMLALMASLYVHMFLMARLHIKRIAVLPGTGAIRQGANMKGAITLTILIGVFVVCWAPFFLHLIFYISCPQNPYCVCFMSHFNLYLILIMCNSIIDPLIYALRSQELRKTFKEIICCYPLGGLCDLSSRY
Briefly: Radioligand binding, human melanocortin MC4 membranes, FlashPlate, [125I]-NDP-αMSH. As to conditions: compound at 10 μM. The method in brief: as §1

Assay [5] addresses T5, Human melanocortin (MC5) (Homo sapiens, UniProt P33032).
T5 construct: purchased Perkin Elmer Biosignal
As to the kind of experiment: Radioligand binding, human melanocortin MC5 membranes, FlashPlate, [125I]-NDP-αMSH. As to conditions: compound at 10 μM. In a few lines:
as §1

For assay [6], the target named is T6, Human melanin-concentrating hormone (MCH1) (Homo sapiens, UniProt Q99705).
T6 construct: purchased Perkin Elmer Biosignal
T6 sequence (Q99705 whole entry): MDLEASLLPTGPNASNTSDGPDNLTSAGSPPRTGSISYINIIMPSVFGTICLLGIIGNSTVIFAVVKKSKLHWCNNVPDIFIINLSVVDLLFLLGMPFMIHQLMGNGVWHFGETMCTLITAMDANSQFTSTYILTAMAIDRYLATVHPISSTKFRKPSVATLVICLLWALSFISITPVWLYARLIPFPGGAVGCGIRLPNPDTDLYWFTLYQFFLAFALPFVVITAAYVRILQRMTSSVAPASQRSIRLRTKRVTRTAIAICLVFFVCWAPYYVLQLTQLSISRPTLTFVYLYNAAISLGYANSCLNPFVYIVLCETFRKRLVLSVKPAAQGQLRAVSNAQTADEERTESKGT
As to the kind of experiment: Radioligand binding, human melanin-concentrating hormone MCH1 membranes, FlashPlate, [125I]-S36057. Conditions: compound at 10 μM; for A6: inhibition of radioligand binding, human melanin-concentrating hormone (MCH1): [125I]-S36057. In a few lines: as §1

Assay [7] has as its target T7, Human μ-opioid (MOP) (Homo sapiens, UniProt P35372).
T7 construct: purchased Perkin Elmer Biosignal
Briefly: Radioligand binding, human μ-opioid (MOP) membranes, FlashPlate, [3H]-Naloxone. As to conditions: compound at 10 μM. In a few lines: as §1

Assay [8] has as its target T8, Human neurokinin (NK1) (Homo sapiens, UniProt P25103).
T8 construct: purchased Perkin Elmer Biosignal
As to the kind of experiment: Radioligand binding, human neurokinin NK1 membranes, filtration, [125I]-Substance P. As to conditions: compound at 10 μM. In a few lines: as §2

The target of assay [9] is T9, Human neuropeptide Y (NPY-Y1) (Homo sapiens, UniProt P25929).
T9 construct: purchased Perkin Elmer Biosignal
T9 sequence (P25929 1-384): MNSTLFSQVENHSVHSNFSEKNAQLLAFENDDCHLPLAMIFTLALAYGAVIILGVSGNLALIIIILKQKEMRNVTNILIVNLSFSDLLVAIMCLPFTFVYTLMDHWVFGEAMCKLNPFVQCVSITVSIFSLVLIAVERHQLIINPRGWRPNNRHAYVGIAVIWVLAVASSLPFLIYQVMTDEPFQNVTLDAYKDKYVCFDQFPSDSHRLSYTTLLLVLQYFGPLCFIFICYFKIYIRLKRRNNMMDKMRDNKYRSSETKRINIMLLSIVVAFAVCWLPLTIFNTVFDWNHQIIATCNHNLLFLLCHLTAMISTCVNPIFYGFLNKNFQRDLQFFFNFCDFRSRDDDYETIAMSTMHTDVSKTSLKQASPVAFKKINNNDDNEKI
As to the kind of experiment: Radioligand binding, human neuropeptide Y NPY-Y1 membranes, FlashPlate, [125I]-PYY. Conditions: compound at 10 μM. The method in brief:
as §1

Assay [10] deals with T10, Human opioid (ORL1) (Homo sapiens, UniProt P41146).
T10 construct: purchased Perkin Elmer Biosignal
T10 sequence (P41146 whole entry): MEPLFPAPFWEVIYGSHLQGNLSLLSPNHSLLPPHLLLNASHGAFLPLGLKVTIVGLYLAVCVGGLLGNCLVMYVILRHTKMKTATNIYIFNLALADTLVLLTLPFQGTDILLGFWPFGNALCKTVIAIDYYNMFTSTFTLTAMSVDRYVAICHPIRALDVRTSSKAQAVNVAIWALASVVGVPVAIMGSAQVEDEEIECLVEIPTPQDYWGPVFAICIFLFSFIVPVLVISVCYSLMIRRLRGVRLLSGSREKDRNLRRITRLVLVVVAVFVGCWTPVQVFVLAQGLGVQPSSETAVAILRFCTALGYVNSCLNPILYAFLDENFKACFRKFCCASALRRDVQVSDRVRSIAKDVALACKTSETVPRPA
Briefly: Radioligand binding, human opioid ORL1 membranes, FlashPlate, [125I]-Nociceptin. Conditions: compound at 10 μM. The method in brief:
as §1

Assay [11] concerns the target T11, Mouse urotensin (mUR2) (Mus musculus, UniProt Q8VIH9).
T11 construct: purchased Perkin Elmer Biosignal
T11 sequence (Q8VIH9 1-385): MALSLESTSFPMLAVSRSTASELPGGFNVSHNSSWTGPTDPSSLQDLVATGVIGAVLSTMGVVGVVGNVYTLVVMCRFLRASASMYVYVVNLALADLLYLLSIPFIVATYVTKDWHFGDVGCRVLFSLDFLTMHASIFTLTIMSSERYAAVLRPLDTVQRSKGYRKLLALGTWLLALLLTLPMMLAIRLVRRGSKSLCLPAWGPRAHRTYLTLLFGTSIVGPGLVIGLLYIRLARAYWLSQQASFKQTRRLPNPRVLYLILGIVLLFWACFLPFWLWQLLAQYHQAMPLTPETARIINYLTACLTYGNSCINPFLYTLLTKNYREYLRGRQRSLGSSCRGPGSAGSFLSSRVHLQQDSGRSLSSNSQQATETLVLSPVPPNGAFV
Briefly: Radioligand binding, mouse urotensin mUR2 membranes, FlashPlate, [125I]-Urotensin II. As to conditions: compound at 10 μM. The method in brief: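 Cloned mouse urotensin (mUR2) receptor membranes from Perkin Elmer Biosignal were immobilized in FlashPlate microplates using a proprietary coating. Each well got 19.5 μl buffer, then 0.5 μl of DMSO, reference ligand, or compound. Adding 5 μl of [125I]-Urotensin II, diluted to 5× final concentration in binding buffer, started binding. Plates were sealed with TopSeal-A and incubated 1 hour at room temperature in the dark. Wells were counted for 30 seconds each on a TopCount after a 60-second delay, and percentage inhibition was calculated.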

T8 sequence (P25103 whole entry): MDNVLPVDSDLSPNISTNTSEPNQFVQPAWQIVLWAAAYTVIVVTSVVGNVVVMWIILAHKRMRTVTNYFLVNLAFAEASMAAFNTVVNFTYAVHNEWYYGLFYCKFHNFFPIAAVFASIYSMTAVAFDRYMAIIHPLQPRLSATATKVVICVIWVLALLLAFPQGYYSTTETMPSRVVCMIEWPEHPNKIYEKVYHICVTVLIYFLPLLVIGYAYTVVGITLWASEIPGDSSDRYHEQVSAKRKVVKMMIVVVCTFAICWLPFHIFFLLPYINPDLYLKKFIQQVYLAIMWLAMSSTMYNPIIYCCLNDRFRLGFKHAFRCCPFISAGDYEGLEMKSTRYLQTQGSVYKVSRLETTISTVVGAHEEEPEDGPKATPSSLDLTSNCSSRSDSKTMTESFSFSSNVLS
T3 sequence (P41968 whole entry): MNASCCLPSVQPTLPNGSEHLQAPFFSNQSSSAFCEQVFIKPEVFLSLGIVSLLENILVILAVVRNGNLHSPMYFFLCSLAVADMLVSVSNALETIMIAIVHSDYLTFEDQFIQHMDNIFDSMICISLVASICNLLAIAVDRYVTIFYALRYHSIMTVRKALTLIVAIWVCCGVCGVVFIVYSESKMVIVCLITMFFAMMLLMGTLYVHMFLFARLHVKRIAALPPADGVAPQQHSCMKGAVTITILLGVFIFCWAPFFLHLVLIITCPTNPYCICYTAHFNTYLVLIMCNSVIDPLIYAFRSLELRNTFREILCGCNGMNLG
T5 sequence (P33032 whole entry): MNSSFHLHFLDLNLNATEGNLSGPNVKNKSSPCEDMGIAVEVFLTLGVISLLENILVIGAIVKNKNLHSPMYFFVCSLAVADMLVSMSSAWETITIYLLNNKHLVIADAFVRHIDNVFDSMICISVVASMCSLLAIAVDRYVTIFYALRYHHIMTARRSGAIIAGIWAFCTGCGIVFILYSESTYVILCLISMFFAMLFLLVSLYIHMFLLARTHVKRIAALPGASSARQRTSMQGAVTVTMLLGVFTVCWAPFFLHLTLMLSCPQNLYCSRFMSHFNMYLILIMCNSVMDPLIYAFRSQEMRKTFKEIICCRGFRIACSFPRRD
T7 sequence (P35372 whole entry): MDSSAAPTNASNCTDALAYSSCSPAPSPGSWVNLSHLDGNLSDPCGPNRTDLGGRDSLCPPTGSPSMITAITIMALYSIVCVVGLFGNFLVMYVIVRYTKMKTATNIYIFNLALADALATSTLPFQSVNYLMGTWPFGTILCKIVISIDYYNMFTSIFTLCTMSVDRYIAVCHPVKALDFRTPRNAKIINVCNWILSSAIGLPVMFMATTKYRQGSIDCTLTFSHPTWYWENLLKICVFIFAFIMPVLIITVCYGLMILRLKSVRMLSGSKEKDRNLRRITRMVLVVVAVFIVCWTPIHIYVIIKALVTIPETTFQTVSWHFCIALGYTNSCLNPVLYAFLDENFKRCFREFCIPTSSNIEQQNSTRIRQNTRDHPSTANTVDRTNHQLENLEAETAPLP
T1 sequence (P41143 whole entry): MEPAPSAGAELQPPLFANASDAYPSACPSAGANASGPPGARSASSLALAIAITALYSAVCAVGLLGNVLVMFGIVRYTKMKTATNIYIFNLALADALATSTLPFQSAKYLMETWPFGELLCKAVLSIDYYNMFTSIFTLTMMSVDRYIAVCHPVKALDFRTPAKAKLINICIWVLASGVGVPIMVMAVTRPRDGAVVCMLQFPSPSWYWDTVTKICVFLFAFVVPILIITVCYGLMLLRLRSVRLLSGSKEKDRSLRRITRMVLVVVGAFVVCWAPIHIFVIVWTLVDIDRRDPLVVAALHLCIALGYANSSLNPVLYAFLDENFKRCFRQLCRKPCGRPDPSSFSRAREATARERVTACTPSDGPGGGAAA

In the case of `CO[C@H]1[C@H](O)[C@@H](COCc2ccc(-c3ccccc3)cc2)OC(OCc2ccc3ccccc3c2)[C@@H]1NC(=O)CCNC(=N)N` (some centres unmarked) [compound 67], the “A1 radioligand binding inhibition” value in assay [1] (human δ-opioid (DOP) membranes) is “+ (“+” indicates greater than 50% inhibition at 10 μM)”. Besides, the “A2 radioligand binding inhibition” value in assay [2] (human κ-opioid (KOP) membranes) is listed as “− (“−” indicates less than 50% inhibition at 10 μM)”. In assay [3] (human melanocortin MC3 membranes), the “A3 radioligand binding inhibition” value is “+ (“+” indicates greater than 50% inhibition at 10 μM)”. Moreover, the “A4 radioligand binding inhibition” value in [4] (human melanocortin MC4 membranes) was “+ (“+” indicates greater than 50% inhibition at 10 μM)”. Besides, in [5] (human melanocortin MC5 membranes), the “A5 radioligand binding inhibition” value is on record as “+ (“+” indicates greater than 50% inhibition at 10 μM)”. For the same compound, the “A6 radioligand binding inhibition” value in assay [6] (human MCH1 membranes) is “+ (“+” indicates greater than 50% inhibition at 10 μM)”. Besides, the “A7 radioligand binding inhibition” value in assay [7] (human μ-opioid (MOP) membranes) is “+ (“+” indicates greater than 50% inhibition at 10 μM)”. In [8] (human neurokinin NK1 membranes), the “A8 radioligand binding inhibition” value is “+ (“+” indicates greater than 50% inhibition at 10 μM)”. In addition, the “A9 radioligand binding inhibition” value in assay [9] (human NPY-Y1 membranes) is reported as “− (“−” indicates less than 50% inhibition at 10 μM)”. In addition, the “A10 radioligand binding inhibition” value in assay [10] (human ORL1 membranes) is on record as “+ (“+” indicates greater than 50% inhibition at 10 μM)”. For the same compound, the “A11 radioligand binding inhibition” value in assay [11] (mouse urotensin mUR2 membranes) was “− (“−” indicates less than 50% inhibition at 10 μM)”.

For `N=C(N)NCC(=O)NC1COC(COCc2ccc(Cl)cc2)C(O)C1OCc1ccc(Cl)cc1` (centres unmarked) [compound 539], the “A1: inhibition of radioligand binding, human δ-opioid (DOP)” value in assay [1] ([3H]-Bremazocine) is given as “− (“−” indicates less than 50% inhibition at 10 μM)”. Besides, in assay [2] ([3H]-Diprenorphine), the “A2: inhibition of radioligand binding, human κ-opioid (KOP)” value is “− (“−” indicates less than 50% inhibition at 10 μM)”. In addition, the “A3: inhibition of radioligand binding, human melanocortin (MC3)” value in assay [3] ([125I]-NDP-αMSH) is given as “− (“−” indicates less than 50% inhibition at 10 μM)”. Besides, in assay [4] ([125I]-NDP-αMSH), the “A4: inhibition of radioligand binding, human melanocortin (MC4)” value is recorded as “+ (“+” indicates greater than 50% inhibition at 10 μM)”. Also, the “A5: inhibition of radioligand binding, human melanocortin (MC5)” value in assay [5] ([125I]-NDP-αMSH) was “− (“−” indicates less than 50% inhibition at 10 μM)”. In addition, the “A6: inhibition of radioligand binding, human melanin-concentrating hormone (MCH1)” value in [6] is “− (“−” indicates less than 50% inhibition at 10 μM)”. For the same compound, the “A7: inhibition of radioligand binding, human μ-opioid (MOP)” value in assay [7] ([3H]-Naloxone) is given as “− (“−” indicates less than 50% inhibition at 10 μM)”. For the same compound, in assay [8] ([125I]-Substance P), the “A8: inhibition of radioligand binding, human neurokinin (NK1)” value is listed as “+ (“+” indicates greater than 50% inhibition at 10 μM)”. For the same compound, in [9] ([125I]-PYY), the “A9: inhibition of radioligand binding, human neuropeptide Y (NPY-Y1)” value was “− (“−” indicates less than 50% inhibition at 10 μM)”. For the same compound, the “A10: inhibition of radioligand binding, human opioid (ORL1)” value in assay [10] ([125I]-Nociceptin) is listed as “− (“−” indicates less than 50% inhibition at 10 μM)”. In assay [11] ([125I]-Urotensin II), the “A11: inhibition of radioligand binding, mouse urotensin (mUR2)” value was “− (“−” indicates less than 50% inhibition at 10 μM)”.

Take `COC[C@H]1OC(OCc2ccc3ccccc3c2)[C@H](NC(=O)CCCN)[C@@H](OCc2ccc(-c3ccccc3)cc2)[C@@H]1O` (some centres unmarked) [compound 337]: the “A1: inhibition of radioligand binding, human δ-opioid (DOP)” value in assay [1] ([3H]-Bremazocine) is listed as “− (“−” indicates less than 50% inhibition at 10 μM)”. For the same compound, the “A2: inhibition of radioligand binding, human κ-opioid (KOP)” value in assay [2] ([3H]-Diprenorphine) is given as “− (“−” indicates less than 50% inhibition at 10 μM)”. Also, the “A3: inhibition of radioligand binding, human melanocortin (MC3)” value in assay [3] ([125I]-NDP-αMSH) is given as “− (“−” indicates less than 50% inhibition at 10 μM)”. Also, the “A4: inhibition of radioligand binding, human melanocortin (MC4)” value in assay [4] ([125I]-NDP-αMSH) is “− (“−” indicates less than 50% inhibition at 10 μM)”. For the same compound, the “A5: inhibition of radioligand binding, human melanocortin (MC5)” value in assay [5] ([125I]-NDP-αMSH) is listed as “+ (“+” indicates greater than 50% inhibition at 10 μM)”. The “A6: inhibition of radioligand binding, human melanin-concentrating hormone (MCH1)” value in assay [6] is “+ (“+” indicates greater than 50% inhibition at 10 μM)”. Also, the “A7: inhibition of radioligand binding, human μ-opioid (MOP)” value in [7] ([3H]-Naloxone) is reported as “+ (“+” indicates greater than 50% inhibition at 10 μM)”. Moreover, in [8] ([125I]-Substance P), the “A8: inhibition of radioligand binding, human neurokinin (NK1)” value is given as “+ (“+” indicates greater than 50% inhibition at 10 μM)”. In addition, the “A9: inhibition of radioligand binding, human neuropeptide Y (NPY-Y1)” value in [9] ([125I]-PYY) is “− (“−” indicates less than 50% inhibition at 10 μM)”. Moreover, the “A10: inhibition of radioligand binding, human opioid (ORL1)” value in assay [10] ([125I]-Nociceptin) is given as “− (“−” indicates less than 50% inhibition at 10 μM)”. In addition, in [11] ([125I]-Urotensin II), the “A11: inhibition of radioligand binding, mouse urotensin (mUR2)” value is “− (“−” indicates less than 50% inhibition at 10 μM)”.

With `N=C(N)NCCC(=O)NC1C(OCc2ccc(Cl)cc2)OC(COCc2ccc(Cl)cc2)C(O)C1OCc1ccc(Cl)cc1` (centres unmarked) [compound 428], the “A1: inhibition of radioligand binding” value in assay [1] ([3H]-Bremazocine, human DOP membranes) is given as “− (“−” indicates less than 50% inhibition at 10 μM)”. Further, in assay [2] ([3H]-Diprenorphine, human KOP membranes), the “A2: inhibition of radioligand binding” value was “− (“−” indicates less than 50% inhibition at 10 μM)”. The “A3: inhibition of radioligand binding” value in [3] ([125I]-NDP-αMSH, human MC3 membranes) was “+ (“+” indicates greater than 50% inhibition at 10 μM)”. The “A4: inhibition of radioligand binding” value in [4] ([125I]-NDP-αMSH, human MC4 membranes) was “+ (“+” indicates greater than 50% inhibition at 10 μM)”. Also, the “A5: inhibition of radioligand binding” value in assay [5] ([125I]-NDP-αMSH, human MC5 membranes) was “+ (“+” indicates greater than 50% inhibition at 10 μM)”. Further, the “A6: inhibition of radioligand binding” value in assay [6] ([125I]-S36057, human MCH1 membranes) is recorded as “+ (“+” indicates greater than 50% inhibition at 10 μM)”. Also, in [7] ([3H]-Naloxone, human MOP membranes), the “A7: inhibition of radioligand binding” value is listed as “− (“−” indicates less than 50% inhibition at 10 μM)”. Besides, the “A8: inhibition of radioligand binding” value in [8] ([125I]-Substance P, human NK1 membranes) is “+ (“+” indicates greater than 50% inhibition at 10 μM)”. The “A9: inhibition of radioligand binding” value in assay [9] ([125I]-PYY, human NPY-Y1 membranes) is recorded as “− (“−” indicates less than 50% inhibition at 10 μM)”. In addition, the “A10: inhibition of radioligand binding” value in assay [10] ([125I]-Nociceptin, human ORL1 membranes) is recorded as “+ (“+” indicates greater than 50% inhibition at 10 μM)”. Also, the “A11: inhibition of radioligand binding” value in [11] ([125I]-Urotensin II, mouse mUR2 membranes) is on record as “− (“−” indicates less than 50% inhibition at 10 μM)”.
